For orientation: Ki means a dissociation constant, usually derived from enzyme kinetics or from competition with a known ligand. The low end stands for higher affinity, the high end for lower affinity.

Data on five compounds can be found in patent US20040127549A1, “Cyclic 2-carbonylaminoketones as inhibitors of cruzipain and other cysteine proteases” (priority 2001, published 2004).

For assay [1], the system named is Trypanosoma cruzi infection. The note with it: acute phase of infection; cited from earlier work.
For the next assay, the target named is T1, Cruzipain (Trypanosoma cruzi, UniProt P25779).
T1 construct: Wild-type cruzipain, derived from Trypanosoma cruzi Dm28 epimastigotes, was obtained from Dr. Julio Scharfstein; tissue Dr. Julio Scharfstein (Instituto de Biofisica Carlos Chagas Filho, Universidade Federal do Rio de Janeiro); host or cells: Trypanosoma cruzi Dm28 epimastigotes
T1 sequence (P25779 123-467): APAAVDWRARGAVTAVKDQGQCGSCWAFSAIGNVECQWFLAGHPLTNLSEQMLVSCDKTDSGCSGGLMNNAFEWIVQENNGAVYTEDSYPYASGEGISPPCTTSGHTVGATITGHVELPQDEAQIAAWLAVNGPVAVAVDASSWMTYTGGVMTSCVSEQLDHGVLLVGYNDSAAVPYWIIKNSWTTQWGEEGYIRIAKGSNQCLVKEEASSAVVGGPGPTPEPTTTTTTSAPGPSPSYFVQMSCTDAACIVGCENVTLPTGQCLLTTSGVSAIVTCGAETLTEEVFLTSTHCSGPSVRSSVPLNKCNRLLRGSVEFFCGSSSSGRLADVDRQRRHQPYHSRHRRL
The assay can be described thus: Trypanosoma cruzi cruzipain peptidase activity assay (Ki). The assay is classed as biochemical. The note with it: wild-type cruzipain, pH 6.75, 25±1° C. Here is the method: (§1) Assay protocols were based on literature precedent (Tablel; Barrett, A. J., Rawlings, N. D. and Woessner, J. F., 1998, Handbook of Proteolytic Enzymes, Academic Press, London and references therein) and modified as required to suit local assay protocols. Enzyme was added as required to initiate the reaction and the activity, as judged by the change in fluorescence upon conversion of substrate to product, was monitored over time. All assays were carried out at 25±1° C.
Wild-type cruzipain, derived from Trypanosoma cruzi Dm28 epimastigotes, was obtained from Dr. Julio Scharfstein (Instituto de Biofisica Carlos Chagas Filho, Universidade Federal do R10 de Janeiro, R10 de Janeiro, Brazil). Activity assays were carried out in 100 mM sodium phosphate, pH 6.75 containing 1 mM EDTA and 10 mM L-cysteine using 2.5 nM enzyme. Ac-Phe-Arg-AMC (KM^app≈12 1M) and D-Val-Leu-Lys-AMC (KM^app≈4 1M) were used as the substrates. Routinely, Ac-FR-AMC was used at a concentration equivalent to KM^app and D-Val-Leu-Lys-AMC was used at a concentration of 25 μM. The rate of conversion of substrate to product was derived from the slope of the increase in fluorescence monitored continuously over time.
The apparent inhibition constant (Ki) for each compound was determined on the basis that inhibition was reversible and occurred by a pure-competitive mechanism. The Ki values were calculated, from the dependence of enzyme activity as a function of inhibitor concentration, by direct regression analysis (Prism v 3.02) using Equation 2 (Cornish-Bowden, A., 1995.). [formula] […]
(§2) In situations where the apparent dissociation constant (Ki^app) approached the enzyme concentrations, the Ki^app values were calculated using a quadratic solution in the form described by Equation 3 (Morrison, J. F. Trends Biochem. Sci., 7, 102-105, 1982; Morrison, J. F. Biochim. Biophys. Acta, 185, 269-286, 1969; Stone, S.R. and Hofsteenge, J. Biochemistry, 25, 4622-4628, 1986). […]

For another assay, the target named is T2, Bovine Cathepsin S (Bos taurus, UniProt P25326).
T2 construct: purchased CN Biosciences
T2 sequence (P25326 115-331): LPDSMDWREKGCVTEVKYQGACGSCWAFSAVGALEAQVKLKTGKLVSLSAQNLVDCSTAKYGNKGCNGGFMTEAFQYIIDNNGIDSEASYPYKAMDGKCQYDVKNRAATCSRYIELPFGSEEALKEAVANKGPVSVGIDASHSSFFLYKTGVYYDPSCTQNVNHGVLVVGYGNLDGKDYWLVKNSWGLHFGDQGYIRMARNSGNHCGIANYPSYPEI
Description: Cathepsin peptidase activity assay (Ki), bovine cathepsin S. The assay is classed as biochemical. The note with it: pH 6.5, 25±1° C. Here is the method: as §1
(§3) Bovine cathepsin S, human cathepsin L, human cathepsin H and human cathepsin B were obtained from CN Biosciences. Recombinant human cathepsin S, human cathepsin K and human cathepsin X were obtained from Dr. Boris Turk (Josef Stefan Institute, Ljubljana, Slovenia). Unless otherwise stated, all peptidase activity assays were carried out in 10 mM bis-tris-propane (BTP), pH 6.5 containing 1 mM EDTA, 5 mM 2-mercaptoethanol and 1 mM CaCl2. Human cathepsin H activity assays were carried out in 10 mM BTP pH 6.5, 142 MM NaCl2 1 mM CaCl2, 1 mM EDTA, 1 mM DTr, 0.035 mM Zwittergent 3-16. […] The rate of conversion of substrate to product was derived from the slope of the increase in fluorescence monitored continuously over time.
(§4) The apparent inhibition constant (Ki) for each compound was determined on the basis that inhibition was reversible and occurred by a pure-competitive mechanism. The Ki values were calculated, from the dependence of enzyme activity as a function of inhibitor concentration, by direct regression analysis (Prism v 3.02) using Equation 2 (Cornish-Bowden, A., 1995.). […]
as §2

Another assay concerns the target T3, Human Cathepsin L (Homo sapiens, UniProt P07711).
T3 construct: purchased CN Biosciences
The assay can be described thus: Cathepsin peptidase activity assay (Ki), human cathepsin L. The assay is classed as biochemical. To be noted: pH 6.5, 25±1° C. Here is the method: as §1, §3, §4, §2

The target in another assay is T4, Human Cathepsin K (Homo sapiens, UniProt P43235).
T4 construct: purchased Dr. Boris Turk (Josef Stefan Institute, Ljubljana, Slovenia)
T4 sequence (P43235 115-329): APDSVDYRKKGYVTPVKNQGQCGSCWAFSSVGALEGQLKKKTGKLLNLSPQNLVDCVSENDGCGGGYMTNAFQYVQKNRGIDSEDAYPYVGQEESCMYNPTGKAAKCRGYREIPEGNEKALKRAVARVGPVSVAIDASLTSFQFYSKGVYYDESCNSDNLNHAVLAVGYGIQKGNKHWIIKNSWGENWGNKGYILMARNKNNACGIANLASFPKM
The assay can be described thus: Cathepsin peptidase activity assay (Ki), human cathepsin K. The format is biochemical. The note with it: pH 5.5, 25±1° C. Here is the method: as §1, §3, §4, §2

In assay [2] the test system is Trypanosoma cruzi-infected mammalian cell cultures. To be noted: addition to infected mammalian cell cultures; cited from earlier work.

T3 sequence (P07711 114-333): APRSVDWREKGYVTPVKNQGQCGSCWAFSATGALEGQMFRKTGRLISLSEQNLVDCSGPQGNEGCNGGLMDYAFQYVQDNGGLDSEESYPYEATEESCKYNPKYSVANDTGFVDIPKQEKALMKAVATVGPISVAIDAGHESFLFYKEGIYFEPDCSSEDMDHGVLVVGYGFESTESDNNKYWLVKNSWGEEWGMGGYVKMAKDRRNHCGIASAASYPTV

With `O=C(Cn1ccnc1[N+](=O)[O-])NCc1ccccc1` [benznidazole], the cure in assay [1] is given as 60%.
As for `C[C@H]1OCC(=O)[C@]1(C)NC(=O)[C@H](Cc1ccc(O)cc1)NC(=O)c1csc(-c2cccnc2)n1` [Example 6, (2R, 3R) 2-Pyridin-3-yl-thiazole4-carboxylic acid [1-(2,3-dimethyl-4oxo-tetrahydrofuran-3-ylcarbamoyl)-2-(4-hydroxyphenyl)-ethyl]-amide], the Ki is under 2 µM on Cruzipain, over 50 µM on Bovine Cathepsin S, over 50 µM on Human Cathepsin L and over 100 µM on Human Cathepsin K.
Take `C[C@H]1OCC(=O)[C@]1(C)NC(=O)[C@H](Cc1ccc(O)cc1)NC(=O)c1cccc2ccccc12` [Example 27, (2R, 3R) Naphthalene-1-carboxylic acid [1-(2,3-dimethyl-4-oxo-tetrahydrofuran-3-ylcarbamoyl)-2-(4-hydroxyphenyl)-ethyl]-amide]: the Ki on Cruzipain is over 20 µM; on Bovine Cathepsin S, over 50 µM; on Human Cathepsin L, under 5 µM; at Human Cathepsin K it was over 100 µM.
For the compound `CC(NC(=O)C(Cc1ccccc1)NC(=O)OCc1ccccc1)C(=O)CF` (stereo not drawn) [Z-Phe-Ala-FMK], the “effect on parasite replication and differentiation” value in assay [2] is “blocked replication and differentiation of the parasite”.
Take `C[C@H]1OCC(=O)[C@]1(C)NC(=O)[C@H](CC1CCCCC1)NC(=O)c1ccoc1` [Example 19, (2R, 3R) Furan-3-carboxylic acid [2-cyclohexyl-1-(2,3-dimethyl-oxo-tetrahydrofuran-3-ylcaxbamoyl)-ethyl]-amide]: the Ki is over 50 µM at Cruzipain, under 2 µM at Bovine Cathepsin S, over 50 µM on Human Cathepsin L and over 50 µM on Human Cathepsin K.
